Measured values: ChEMBL document CHEMBL4680314, “Discovery of potent glycogen synthase kinase 3/cholinesterase inhibitors with neuroprotection as potential therapeutic agent for Alzheimer's disease” (Bioorg Med Chem, 2021)
The source made the active and inactive calls. The calls are words filed in the database; no cut-off is given here.

What was measured:
Cholinesterase = Cholinesterase (Homo sapiens, UniProt P06276); experiment: Inhibition of human BChE using butyrylthiocholineiodide as substrate incubated for 10 mins by Ellman's method
[1] = target: Mitogen-activated protein kinase 3 (Homo sapiens, UniProt P27361); experiment: Inhibition of ERK1 (unknown origin) by ATP competitive based analysis
[2] = target: Mitogen-activated protein kinase 12 (Homo sapiens, UniProt P53778); experiment: Inhibition of p38MAPK gamma (unknown origin) by ATP competitive based analysis
[3] = target: Glycogen synthase kinase-3 alpha (Homo sapiens, UniProt P49840); experiment: Inhibition of GSK3alpha (unknown origin) by ATP competitive based analysis
[4] = target: Glycogen synthase kinase-3 beta (Homo sapiens, UniProt P49841); experiment: Inhibition of GSK3beta (unknown origin) by ATP competitive based analysis
[5] = target: Mitogen-activated protein kinase 11 (Homo sapiens, UniProt Q15759); experiment: Inhibition of p38MAPK beta (unknown origin) by ATP competitive based analysis
[6] = target: Dual specificity tyrosine-phosphorylation-regulated kinase 1A (Homo sapiens, UniProt Q13627); experiment: Inhibition of DYRK1A (unknown origin) by ATP competitive based analysis
[7] = target: Mitogen-activated protein kinase 10 (Homo sapiens, UniProt P53779); experiment: Inhibition of JNK3 (unknown origin) by ATP competitive based analysis
[8] = target: Cyclin-dependent kinase 2 (Homo sapiens, UniProt P24941); experiment: Inhibition of CDK2 (unknown origin) by ATP competitive based analysis
[9] = target: Cyclin-dependent kinase 1 (Homo sapiens, UniProt P06493); experiment: Inhibition of CDK1 (unknown origin) by ATP competitive based analysis
[10] = target: Cyclin-dependent kinase 6 (Homo sapiens, UniProt Q00534); experiment: Inhibition of CDK6 (unknown origin) by ATP competitive based analysis
[11] = target: Cyclin-dependent kinase 4 (Homo sapiens, UniProt P11802); experiment: Inhibition of CDK4 (unknown origin) by ATP competitive based analysis
[12] = target: Cyclin-dependent kinase 7 (Homo sapiens, UniProt P50613); experiment: Inhibition of CDK7 (unknown origin) by ATP competitive based analysis
[13] = target: Glycogen synthase kinase-3 beta (Mus musculus) (UniProt Q9WV60); experiment: Inhibition of GSK3beta in mouse N2a cells overexpressing human tau assessed as reduction in tau phosphorylation at Ser396 residue at 6 uM incubated for 6 hrs by Western blot analysis relative to control; type: cell-based
[14] = target: Glycogen synthase kinase-3 beta (Mus musculus) (UniProt Q9WV60); experiment: Inhibition of GSK3beta in mouse N2a cells overexpressing human tau assessed as tau phosphorylation at Ser396 residue at 0.074 uM incubated for 6 hrs by Western blot analysis (reference value: […] %); type: cell-based; design: scale not given: the % may be the effect or the level left
[15] = target: Glycogen synthase kinase-3 beta (Mus musculus) (UniProt Q9WV60); experiment: Inhibition of GSK3beta in mouse N2a cells overexpressing human tau assessed as tau phosphorylation at Ser396 residue at 0.22 uM incubated for 6 hrs by Western blot analysis (reference value: […] %); type: cell-based; design: scale not given: the % may be the effect or the level left
[16] = target: Glycogen synthase kinase-3 beta (Mus musculus) (UniProt Q9WV60); experiment: Inhibition of GSK3beta in mouse N2a cells overexpressing human tau assessed as tau phosphorylation at Ser396 residue at 2 uM incubated for 6 hrs by Western blot analysis (reference value: […] %); type: cell-based; design: scale not given: the % may be the effect or the level left
BV-2 [17] = experiment: Anti-inflammatory activity in mouse BV-2 cells assessed as reduction in LPS-induced TNFalpha production at 8 uM incubated for 1 hr followed by LPS stimulation and measured after 24 hrs by ELISA relative to control; type: functional; conditions: time 25 hrs
BV-2 [18] = experiment: Anti-inflammatory activity in mouse BV-2 cells assessed as reduction in LPS-induced TNFalpha expression at 4 uM incubated for 1 hr followed by LPS stimulation and measured after 24 hrs by immunofluorescence based laser confocal microscopy; type: functional, cell-based; conditions: time 25.0 hrs
[19] = Tmax in Sprague-Dawley rat at 10 mg/kg, po measured upto 24 hrs by LC-MS/MS analysis; type: ADME, organism-based; conditions: in vivo
[20] = Cmax in Sprague-Dawley rat at 10 mg/kg, po measured upto 24 hrs by LC-MS/MS analysis; type: ADME, organism-based; design: route oral, dose 10 mg/kg, time <=24; conditions: in vivo
[21] = AUC (0 to 24 hrs) in Sprague-Dawley rat at 10 mg/kg, po measured upto 24 hrs by LC-MS/MS analysis; type: ADME, organism-based; design: route oral, dose 10 mg/kg, time <=24; conditions: in vivo
[22] = AUC (0 to infinity) in Sprague-Dawley rat at 10 mg/kg, po by LC-MS/MS analysis; type: ADME, organism-based; design: route oral, time infinity, dose 10 mg/kg; conditions: in vivo
[23] = Volume of distribution in Sprague-Dawley rat at 10 mg/kg, po measured upto 24 hrs by LC-MS/MS analysis; type: ADME, organism-based; conditions: in vivo
[24] = MRT (0 to t) in Sprague-Dawley rat at 10 mg/kg, po measured upto 24 hrs by LC-MS/MS analysis; type: ADME, organism-based; conditions: in vivo
[25] = Clearance in Sprague-Dawley rat at 10 mg/kg, po measured upto 24 hrs by LC-MS/MS analysis; type: ADME, organism-based; conditions: in vivo
[26] = Oral bioavailability in Sprague-Dawley rat at 10 mg/kg measured upto 24 hrs by LC-MS/MS analysis; type: ADME, organism-based; conditions: in vivo
[27] = Half life in Sprague-Dawley rat at 5 mg/kg, iv measured upto 24 hrs by LC-MS/MS analysis; type: ADME, organism-based; conditions: in vivo
[28] = Tmax in Sprague-Dawley rat at 5 mg/kg, iv measured upto 24 hrs by LC-MS/MS analysis; type: ADME, organism-based; conditions: in vivo
[29] = Clearance in Sprague-Dawley rat at 5 mg/kg, iv measured upto 24 hrs by LC-MS/MS analysis; type: ADME, organism-based; conditions: in vivo
[30] = Ratio of drug level in ICR mouse brain to blood at 15 mg/kg, po measured after 90 mins by LC-MS/MS analysis; type: ADME, organism-based; conditions: 1.5 h
[31] = Toxicity in ICR mouse assessed as reduction in body weight at 15 mg/kg, po; type: organism-based; conditions: in vivo
Homo sapiens [32] = organism: Homo sapiens; experiment: Selectivity index, ratio of IC50 for p38MAPK gamma (unknown origin) to IC50 for GSK-3 beta (unknown origin) by ATP competitive based analysis
Homo sapiens [33] = organism: Homo sapiens; experiment: Selectivity index, ratio of IC50 for p38MAPK delta (unknown origin) to IC50 for GSK-3 beta (unknown origin) by ATP competitive based analysis
Homo sapiens [34] = organism: Homo sapiens; experiment: Selectivity index, ratio of IC50 for GSK3alpha (unknown origin) to IC50 for GSK-3 beta (unknown origin) by ATP competitive based analysis
Homo sapiens [35] = organism: Homo sapiens; experiment: Selectivity index, ratio of IC50 for […] IC50 for GSK-3 beta (unknown origin) by ATP competitive based analysis
Homo sapiens [36] = organism: Homo sapiens; experiment: Selectivity index, ratio of IC50 for CDK1 (unknown origin) to IC50 for GSK-3 beta (unknown origin) by ATP competitive based analysis
Homo sapiens [37] = organism: Homo sapiens; experiment: Selectivity index, ratio of IC50 for CDK4 (unknown origin) to IC50 for GSK-3 beta (unknown origin) by ATP competitive based analysis
Homo sapiens [38] = organism: Homo sapiens; experiment: Selectivity index, ratio of IC50 for CDK7 (unknown origin) to IC50 for GSK-3 beta (unknown origin) by ATP competitive based analysis
[39] = Toxicity in ICR mouse model of scopolamine-induced cognitive dysfunction assessed as effect on locomotor activity by measuring effect on swimming speed at 15 mg/kg, po by Morris water maze test; type: organism-based; conditions: in vivo
BV-2 [40] = experiment: Cytotoxicity against mouse BV-2 cells assessed as effect on cell morphology; type: cell-based

Glycogen synthase kinase-3 beta (Mus musculus), sequence (Q9WV60 whole entry, looked up): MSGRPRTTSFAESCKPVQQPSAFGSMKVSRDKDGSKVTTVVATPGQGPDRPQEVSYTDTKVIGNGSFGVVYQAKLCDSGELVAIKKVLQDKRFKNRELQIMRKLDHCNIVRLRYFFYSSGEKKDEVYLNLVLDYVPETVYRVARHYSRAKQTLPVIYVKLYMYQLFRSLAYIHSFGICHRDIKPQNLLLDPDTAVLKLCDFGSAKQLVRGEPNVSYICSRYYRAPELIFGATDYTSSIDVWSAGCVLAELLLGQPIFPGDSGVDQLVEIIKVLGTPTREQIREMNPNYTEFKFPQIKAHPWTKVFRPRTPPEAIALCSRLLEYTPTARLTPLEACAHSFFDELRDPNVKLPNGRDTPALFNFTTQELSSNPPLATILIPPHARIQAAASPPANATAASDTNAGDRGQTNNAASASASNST
Cholinesterase, sequence (P06276 whole entry): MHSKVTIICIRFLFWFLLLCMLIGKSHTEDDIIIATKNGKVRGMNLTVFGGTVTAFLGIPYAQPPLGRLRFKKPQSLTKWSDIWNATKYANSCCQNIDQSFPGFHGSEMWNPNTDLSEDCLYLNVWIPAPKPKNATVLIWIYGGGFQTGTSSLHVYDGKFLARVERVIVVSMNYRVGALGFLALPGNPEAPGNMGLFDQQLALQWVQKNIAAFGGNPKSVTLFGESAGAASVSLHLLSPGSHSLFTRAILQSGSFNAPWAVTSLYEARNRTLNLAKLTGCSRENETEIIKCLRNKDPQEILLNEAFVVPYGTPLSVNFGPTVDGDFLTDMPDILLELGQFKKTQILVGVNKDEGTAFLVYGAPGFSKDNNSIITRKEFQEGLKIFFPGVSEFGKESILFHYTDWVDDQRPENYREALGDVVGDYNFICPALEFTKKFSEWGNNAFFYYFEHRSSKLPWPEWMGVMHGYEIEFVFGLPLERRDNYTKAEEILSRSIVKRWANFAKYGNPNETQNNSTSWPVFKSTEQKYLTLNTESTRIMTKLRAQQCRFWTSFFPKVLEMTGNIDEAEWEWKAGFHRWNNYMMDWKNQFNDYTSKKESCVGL
Cyclin-dependent kinase 4, sequence (P11802 whole entry): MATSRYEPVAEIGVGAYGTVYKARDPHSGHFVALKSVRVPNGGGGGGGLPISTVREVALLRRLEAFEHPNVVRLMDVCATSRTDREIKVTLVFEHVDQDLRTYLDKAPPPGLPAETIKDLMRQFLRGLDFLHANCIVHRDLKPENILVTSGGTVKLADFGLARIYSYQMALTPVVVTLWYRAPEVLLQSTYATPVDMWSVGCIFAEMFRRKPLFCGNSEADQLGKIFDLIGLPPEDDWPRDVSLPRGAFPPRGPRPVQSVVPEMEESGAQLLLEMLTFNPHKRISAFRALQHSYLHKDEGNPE
Mitogen-activated protein kinase 11, sequence (Q15759 whole entry): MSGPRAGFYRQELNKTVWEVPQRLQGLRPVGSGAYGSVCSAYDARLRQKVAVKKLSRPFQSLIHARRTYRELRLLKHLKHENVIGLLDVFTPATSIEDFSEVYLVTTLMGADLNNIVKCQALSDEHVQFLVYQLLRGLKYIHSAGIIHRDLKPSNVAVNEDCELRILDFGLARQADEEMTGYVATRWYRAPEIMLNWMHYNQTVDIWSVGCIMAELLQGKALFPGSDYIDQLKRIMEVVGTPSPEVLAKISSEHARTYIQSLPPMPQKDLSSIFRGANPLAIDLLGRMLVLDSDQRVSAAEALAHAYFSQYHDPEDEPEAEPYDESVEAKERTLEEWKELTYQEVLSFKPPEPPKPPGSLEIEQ
Cyclin-dependent kinase 6, sequence (Q00534 whole entry): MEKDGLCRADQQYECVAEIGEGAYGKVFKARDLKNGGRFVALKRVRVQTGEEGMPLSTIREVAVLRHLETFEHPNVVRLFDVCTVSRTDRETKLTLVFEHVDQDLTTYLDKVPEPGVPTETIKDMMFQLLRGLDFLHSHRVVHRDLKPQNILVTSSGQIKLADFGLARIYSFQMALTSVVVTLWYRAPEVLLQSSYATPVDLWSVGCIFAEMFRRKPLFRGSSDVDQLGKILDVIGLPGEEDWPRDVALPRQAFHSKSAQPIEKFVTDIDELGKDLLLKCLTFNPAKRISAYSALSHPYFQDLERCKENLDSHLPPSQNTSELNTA
Glycogen synthase kinase-3 alpha, sequence (P49840 whole entry): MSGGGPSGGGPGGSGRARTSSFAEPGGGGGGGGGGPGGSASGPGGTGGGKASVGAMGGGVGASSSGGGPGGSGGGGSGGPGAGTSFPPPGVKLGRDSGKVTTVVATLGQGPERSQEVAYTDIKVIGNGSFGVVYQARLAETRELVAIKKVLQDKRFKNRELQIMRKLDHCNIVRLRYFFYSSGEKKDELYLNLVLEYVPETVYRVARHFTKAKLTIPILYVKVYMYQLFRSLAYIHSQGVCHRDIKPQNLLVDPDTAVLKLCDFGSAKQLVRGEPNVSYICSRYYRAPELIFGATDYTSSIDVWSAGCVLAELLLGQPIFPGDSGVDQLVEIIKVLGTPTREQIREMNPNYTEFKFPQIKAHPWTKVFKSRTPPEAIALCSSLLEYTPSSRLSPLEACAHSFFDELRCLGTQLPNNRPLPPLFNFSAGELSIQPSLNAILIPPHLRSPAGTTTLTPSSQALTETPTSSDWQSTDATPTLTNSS
Cyclin-dependent kinase 1, sequence (P06493 whole entry): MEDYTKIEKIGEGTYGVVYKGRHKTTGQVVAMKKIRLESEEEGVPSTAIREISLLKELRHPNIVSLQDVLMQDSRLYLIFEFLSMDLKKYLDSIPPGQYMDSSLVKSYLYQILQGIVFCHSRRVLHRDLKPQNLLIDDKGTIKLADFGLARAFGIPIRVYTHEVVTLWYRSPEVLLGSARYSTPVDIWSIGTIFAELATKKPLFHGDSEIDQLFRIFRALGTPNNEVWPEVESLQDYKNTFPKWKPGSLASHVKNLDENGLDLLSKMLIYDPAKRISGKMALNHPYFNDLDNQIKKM
Cyclin-dependent kinase 7, sequence (P50613 whole entry): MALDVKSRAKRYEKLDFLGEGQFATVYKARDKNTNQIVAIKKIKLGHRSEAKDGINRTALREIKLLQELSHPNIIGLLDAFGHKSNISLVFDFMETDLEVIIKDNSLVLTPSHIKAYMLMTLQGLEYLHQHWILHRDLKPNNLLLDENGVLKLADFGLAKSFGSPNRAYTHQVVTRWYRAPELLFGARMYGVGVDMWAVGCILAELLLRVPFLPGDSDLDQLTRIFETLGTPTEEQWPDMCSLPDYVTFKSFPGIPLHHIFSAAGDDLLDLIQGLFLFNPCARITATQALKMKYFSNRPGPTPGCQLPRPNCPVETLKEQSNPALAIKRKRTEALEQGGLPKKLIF
Glycogen synthase kinase-3 beta, sequence (P49841 whole entry): as the sequence (Q9WV60 whole entry, looked up) above, with P390T, A392T, T400A, A402T counted along it
Mitogen-activated protein kinase 10, sequence (P53779 whole entry): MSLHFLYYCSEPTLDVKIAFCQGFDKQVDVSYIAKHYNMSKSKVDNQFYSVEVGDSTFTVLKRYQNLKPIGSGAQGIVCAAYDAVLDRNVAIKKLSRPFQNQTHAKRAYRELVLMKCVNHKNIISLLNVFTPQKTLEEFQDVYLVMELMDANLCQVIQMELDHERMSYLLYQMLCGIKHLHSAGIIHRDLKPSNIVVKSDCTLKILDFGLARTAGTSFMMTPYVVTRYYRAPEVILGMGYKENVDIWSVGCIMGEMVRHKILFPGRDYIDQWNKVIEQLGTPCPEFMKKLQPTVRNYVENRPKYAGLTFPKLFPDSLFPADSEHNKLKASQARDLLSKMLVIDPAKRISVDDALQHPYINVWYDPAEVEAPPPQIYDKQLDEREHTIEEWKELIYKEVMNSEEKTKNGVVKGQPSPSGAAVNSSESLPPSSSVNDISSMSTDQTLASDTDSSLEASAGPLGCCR
Mitogen-activated protein kinase 12, sequence (P53778 whole entry): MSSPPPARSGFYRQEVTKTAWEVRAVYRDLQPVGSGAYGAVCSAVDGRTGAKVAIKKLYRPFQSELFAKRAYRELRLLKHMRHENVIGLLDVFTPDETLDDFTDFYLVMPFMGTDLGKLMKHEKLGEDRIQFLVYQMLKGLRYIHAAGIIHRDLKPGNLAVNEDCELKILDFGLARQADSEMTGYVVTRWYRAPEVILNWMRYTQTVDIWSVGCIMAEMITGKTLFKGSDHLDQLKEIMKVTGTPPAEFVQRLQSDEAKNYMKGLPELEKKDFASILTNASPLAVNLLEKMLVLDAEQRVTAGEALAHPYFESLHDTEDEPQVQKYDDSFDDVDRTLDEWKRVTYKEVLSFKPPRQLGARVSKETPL
Mitogen-activated protein kinase 3, sequence (P27361 whole entry): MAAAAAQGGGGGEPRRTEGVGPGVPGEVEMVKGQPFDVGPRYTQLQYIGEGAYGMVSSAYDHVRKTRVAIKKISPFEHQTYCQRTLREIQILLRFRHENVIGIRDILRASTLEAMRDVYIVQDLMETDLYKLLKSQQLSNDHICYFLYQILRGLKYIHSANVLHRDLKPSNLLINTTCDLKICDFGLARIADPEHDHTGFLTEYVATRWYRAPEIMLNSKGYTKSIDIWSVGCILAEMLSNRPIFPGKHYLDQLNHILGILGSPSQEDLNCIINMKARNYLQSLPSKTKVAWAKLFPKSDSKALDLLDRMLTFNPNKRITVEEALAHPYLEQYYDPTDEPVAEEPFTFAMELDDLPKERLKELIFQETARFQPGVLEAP

NC(=O)c1sc(-c2ccnc(NC(=O)C3CC3)c2)nc1OCCCC1CCN(Cc2ccc(F)cc2)CC1
IC50 (Cholinesterase): 3410 nM | IC50 [1]: > 300 nM | IC50 [2]: > 300 nM | IC50 [3]: 12 nM | IC50 [4]: 16.1 nM | IC50 [5]: > 300 nM | IC50 [6]: 8.1 nM | IC50 [7]: > 300 nM | IC50 [8]: > 300 nM | IC50 [9]: > 300 nM | IC50 [10]: > 300 nM | IC50 [11]: > 300 nM | IC50 [12]: > 300 nM | Imax [13]: 93% | Activity [14]: 91.1% | Activity [15]: 63.3% | Activity [16]: 14.3% | inhibition at 8 µM (BV-2 [17]): 100% | Activity (BV-2 [18]): Active | Tmax [19]: 4.7 h | Cmax [20]: 132 ng/mL | AUC(0-t) [21]: 1160 ng·h/mL | AUC(0-inf) [22]: 1260 ng·h/mL | Vd [23]: 60.7 L/kg | MRT last at 24 h [24]: 9.9 h | CL/F [25]: 112 mL/min/kg | bioavailability [26]: 30.3% | half-life [27]: 4.3 h | Tmax [28]: 4.98 min | clearance [29]: 42.5 mL/min/kg | Ratio [30]: 21.6 ng/kg | Activity [31]: Non-Toxic | Ratio IC50 (Homo sapiens [32]): 200 | Ratio IC50 (Homo sapiens [33]): 200 | Ratio IC50 (Homo sapiens [34]): 200 | Ratio IC50 (Homo sapiens [35]): 200 | Ratio IC50 (Homo sapiens [36]): 200 | Ratio IC50 (Homo sapiens [37]): 200 | Ratio IC50 (Homo sapiens [38]): 200 | Activity [39]: Non-Toxic | Activity (BV-2 [40]): Non-Toxic
